Legend:
[1] = biological target: T1, human CYP11B2 (aldosterone synthase) (Homo sapiens, UniProt P19099); test: Inhibition of human CYP11B2 (aldosterone synthase) expressed in Y1 cells; assay type: cell-based; conditions: hsCYP11B2-expressing Y1 cells; substrate 1 μM; inhibitor 0.1 nM-10 μM; 48 hours incubation
T1 construct: expressed in transfected cells; host or cells: Y1 cells
T1 sequence (P19099 25-503): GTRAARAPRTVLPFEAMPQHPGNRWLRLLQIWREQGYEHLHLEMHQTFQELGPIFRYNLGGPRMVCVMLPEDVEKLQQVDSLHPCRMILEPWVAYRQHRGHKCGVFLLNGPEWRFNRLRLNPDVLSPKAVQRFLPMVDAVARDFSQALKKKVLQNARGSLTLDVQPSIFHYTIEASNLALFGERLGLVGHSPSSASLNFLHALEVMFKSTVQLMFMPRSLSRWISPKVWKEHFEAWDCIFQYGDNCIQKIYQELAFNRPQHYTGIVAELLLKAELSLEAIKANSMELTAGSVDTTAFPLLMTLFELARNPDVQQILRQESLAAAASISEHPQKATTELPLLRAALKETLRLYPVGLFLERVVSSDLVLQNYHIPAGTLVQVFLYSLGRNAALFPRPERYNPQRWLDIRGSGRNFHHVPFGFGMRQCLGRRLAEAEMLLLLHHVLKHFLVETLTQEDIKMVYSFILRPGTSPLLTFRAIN
Protocol: (§1) Several non-radioactive fluorinated analogs of the above radioactive tracers were prepared for testing affinity for CYP11B2 (aldosterone synthase), expressed as IC50, and selectivity for CYP11B2 over CYP11B1 (11β-hydroxylase), referred to herein as the selectivity factor, in vitro as follows:
(§2) To conduct in vitro testing of nonradioactive compounds 1a*, 1b*, 1j*, 2a*, 2c*, 2d*, and 2e* to determine IC50 values for inhibition of CYP11B1 and CYP11B2, human CYP11B1 and CYP11B2 enzymes were expressed in Y1 cells using liposome/lipid-mediated DNA transfection. To evaluate CYP11B1 and CYP11B2 inhibition, hsCYP11B1- and hsCYP11B2-expressing Y1 cells were subcultured on 6-well plates (0.5×10^6 cells/well) in 2 ml of culture medium. The enzyme reaction was started after 24 hours by the addition of 1 ml culture medium containing either 11-deoxycortisol (RSS) or 11-deoxycorticosterone (DOC) as substrate and the corresponding inhibitor. RSS and DOC were dissolved in ethanol to a final test concentration of 1 μM. For determination of IC50 values, the inhibitors were added to the culture medium at concentrations between 0.1 nM-10 μM and incubated for 48 hours. Cells which were treated in the same way but without inhibitors, served as controls. As further controls, untransfected Y1 cells were also incubated with RSS and DOC, respectively. […]

[2] = biological target: T2, human CYP11B1 (11β-hydroxylase) (Homo sapiens, UniProt P15538); test: Inhibition of human CYP11B1 expressed in Y1 cells, used for the selectivity factor versus CYP11B2; assay type: cell-based; conditions: ratio of IC50 values in hsCYP11B1- and hsCYP11B2-expressing Y1 cells; 48 hours incubation
T2 construct: expressed in transfected cells; host or cells: Y1 cells
T2 sequence (P15538 25-503): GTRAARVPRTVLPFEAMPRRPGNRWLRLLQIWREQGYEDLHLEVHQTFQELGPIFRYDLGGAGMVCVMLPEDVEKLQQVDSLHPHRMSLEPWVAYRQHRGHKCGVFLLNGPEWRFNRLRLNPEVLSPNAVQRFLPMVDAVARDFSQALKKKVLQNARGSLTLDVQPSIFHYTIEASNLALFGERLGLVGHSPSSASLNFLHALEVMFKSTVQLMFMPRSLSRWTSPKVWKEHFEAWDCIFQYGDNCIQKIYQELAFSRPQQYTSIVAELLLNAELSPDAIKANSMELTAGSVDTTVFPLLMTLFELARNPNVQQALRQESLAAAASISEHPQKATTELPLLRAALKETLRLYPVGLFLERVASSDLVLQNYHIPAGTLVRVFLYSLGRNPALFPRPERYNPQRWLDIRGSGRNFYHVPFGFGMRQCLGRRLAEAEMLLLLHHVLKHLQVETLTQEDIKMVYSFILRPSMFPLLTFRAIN
Protocol: as §1, §2

Row | IC50 [1] [µM] | Selectivity Factor (IC50 CYP11B1/IC50 CYP11B2) [2] | SMILES
1 | 0.0158 ± 0.0051 | >100 | FCCOc1ccc2cc(-c3cncc4ccccc34)ccc2c1 [Compound 1j]
2 | 0.0065 ± 0.0038 | 104 | COc1ccc2cc(-c3cncc(OCCF)c3)ccc2c1 [Compound 1a, 3-(6-methoxy-2-naphthyl)-5-(2-fluoroethoxy)pyridine]

Source: patent publication US20130089502A1, “PET RADIOPHARMACEUTICALS FOR DIFFERENTIAL DIAGNOSIS BETWEEN BILATERAL AND UNILATERAL CONDITIONS OF PRIMARY HYPERALDOSTERONISM” (UNIVERSITAT DES SAARLANDES, priority 2010, published 2013)
